Values after ≈ are worked out from the molar mass of the structure shown. Read-outs that look alike come from different tables or passages of the source.
Key:
Group C Streptococcus = test: MIC, clindamycin prodrugs; type: cell-based
Clostridium sporogenes = test: MIC, clindamycin prodrugs; type: cell-based; conditions: ATCC 3584
[1] = Stability in USP simulated gastric juice; type: in vitro ADME; conditions: USP SGF pH 1.1, pepsin […], prodrug 20 μg/mL
Source text: To minimize the direct inhibitory action of this drug on gastric emptying/gut motility—and resultant nausea—the prodrug should not undergo premature chemical or enzymic cleavage back to the parent drug while within the gut lumen.

Streptococcus pneumoniae = test: MIC, clindamycin prodrugs; type: cell-based; conditions: for MIC: Streptococcus pneumoniae
Clostridium sordellii = conditions: NCTC 13356
Streptococcus pyogenes = test: MIC, clindamycin prodrugs; type: cell-based
Prevotella oralis = conditions: clinical isolate
Veillonella parvula = test: MIC, clindamycin prodrugs; type: cell-based
Campylobacter coli = test: MIC, clindamycin prodrugs; type: cell-based; conditions: for MIC: Campylobacter coli
Campylobacter jejuni = test: MIC, clindamycin prodrugs; type: cell-based; conditions: for MIC: Campylobacter jejuni
Bifidobacterium dentium = test: MIC, clindamycin prodrugs; type: cell-based
[2] = system: Peptostreptococcus anaerobius; test: MIC, clindamycin prodrugs; type: cell-based; conditions: NCTC 11460
Helicobacter pylori = test: MIC, clindamycin prodrugs; type: cell-based; conditions: for MIC: Helicobacter pylori
Veillonella atypical = test: MIC, clindamycin prodrugs; type: cell-based
[3] = system: Bacteroides thetaiotamicron; test: MIC, clindamycin prodrugs; type: cell-based; conditions: for MIC: Bacteroides
Clostridium perfringens = test: microbe, parasite or virus in culture; type: cell-based; conditions: for MIC: Clostridium perfringens
Eggerthella lenta = test: MIC, clindamycin prodrugs; type: cell-based
Prevotella intermedia = conditions: clinical isolate
[4] = system: Staphylococcus epidermidis; test: MIC, clindamycin prodrugs; type: cell-based
Staphylococcusaureus = test: MIC, clindamycin prodrugs; type: cell-based
[5] = system: Porphyromonas assacharolyticus; conditions: clinical isolate
[6] = system: Staphylococcus haemolyticus; test: MIC, clindamycin prodrugs; type: cell-based
[7] = system: Prevotella melaninogenicus; test: MIC, clindamycin prodrugs; type: cell-based
Bacteroides fragilis = test: MIC, clindamycin prodrugs; type: cell-based; conditions: for MIC: Bacteroides fragilis
Bifidobacterium longum = test: MIC, clindamycin prodrugs; type: cell-based
Propionibacterium acnes = test: MIC, clindamycin prodrugs; type: cell-based; conditions: for MIC: Cutibacterium acnes
Enterococcus faecium = conditions: vancomycin-susceptible clinical isolate
Veillonella spp. = conditions: clinical isolate
[8] = system: Bifidobacterium adolescentis; test: MIC, clindamycin prodrugs; type: cell-based
[9] = antibiotic-susceptible clinical isolate
[10] = Macrolide (MLS) resistant clinical isolate
[11] = antibiotic susceptible clinical isolate
[12] = methicillin-resistant clinical isolate
[13] = clinical isolate (second listed, r38)
[14] = read-out: Minimum inhibitory concentration

For `CCCC1CC(C(=O)NC(C(C)Cl)C2OC(SC)C(OC(=O)CCCC(=O)Nc3ccc(C(=O)O)cc3)C(O)C2O)N(C)C1.O=C(O)C(F)(F)F` (stereo not drawn) [Clindamycin glutaryl PABA ester, Clindamycin-2-(glutaryl-PABA) ester trifluoroacetate], the Minimum inhibitory concentration (Group C Streptococcus; [9]) was 2 µg/mL, the Minimum inhibitory concentration (Clostridium sporogenes) was over 64 µg/mL and the “Simulated gastric juice (1 h, 37° C.) % active drug generated” value [1] was under 1%. It also gave a Minimum inhibitory concentration (Streptococcus pneumoniae; ATCC 49619 antibiotic-susceptible type strain) of 2 µg/mL, a Minimum inhibitory concentration (Streptococcus pneumoniae; penicillin-susceptible clinical isolate) of 1 µg/mL and a Minimum inhibitory concentration (Clostridium sordellii) of over 64 µg/mL. For the same molecule, the Minimum inhibitory concentration (Streptococcus pyogenes; [10]) was 4 µg/mL, the Minimum inhibitory concentration (Streptococcus pyogenes; [9]) was 2 µg/mL and the Minimum inhibitory concentration (Prevotella oralis) was “≦0.03 ug/mL”. The Minimum inhibitory concentration (Veillonella parvula; NCTC 11810) was 4 µg/mL, the Minimum inhibitory concentration (Campylobacter coli; ATCC 33559) was “≦0.03 ug/mL” and the Minimum inhibitory concentration (Campylobacter coli; clinical isolate) was 0.06 µg/mL. The Minimum inhibitory concentration (Campylobacter jejuni; ATCC 33560) was “≦0.03 ug/mL”, the Minimum inhibitory concentration (Campylobacter jejuni; clinical isolate) was “≦0.03 ug/mL” and the Minimum inhibitory concentration (Bifidobacterium dentium; NCTC 11816) was 2 µg/mL. The Minimum inhibitory concentration [2] was 32 µg/mL, the Minimum inhibitory concentration (Helicobacter pylori; ATCC 43504) was “≦0.03 ug/mL” and the Minimum inhibitory concentration (Helicobacter pylori; clinical isolate (r56)) was “≦0.03 ug/mL”. The Minimum inhibitory concentration (Helicobacter pylori; clinical isolate (r57)) was “≦0.03 ug/mL”, the Minimum inhibitory concentration (Helicobacter pylori; clinical isolate (r100)) was “≦0.03 ug/mL” and the Minimum inhibitory concentration (Helicobacter pylori; clinical isolate (r101)) was “≦0.03 ug/mL”. For the same molecule, the Minimum inhibitory concentration (Veillonella atypical; NCTC 11830) was 4 µg/mL, the Minimum inhibitory concentration ([3]; ATCC 29741) was over 64 µg/mL and the Minimum inhibitory concentration ([3]; NCTC 10582) was over 64 µg/mL. It also gave a Minimum inhibitory concentration (Clostridium perfringens; ATCC 13124) of 8 µg/mL, a Minimum inhibitory concentration (Clostridium perfringens; [9]) of 8 µg/mL and a Minimum inhibitory concentration (Eggerthella lenta; ATCC 43055) of 16 µg/mL. The Minimum inhibitory concentration (Eggerthella lenta; clinical isolate) was 16 µg/mL, the Minimum inhibitory concentration (Prevotella intermedia) was 0.12 µg/mL and the Minimum inhibitory concentration [4, 11] was 4 µg/mL. For the same molecule, the Minimum inhibitory concentration [4, 12] was 8 µg/mL, the Minimum inhibitory concentration (Staphylococcusaureus; ATCC 25923 - antibiotic-susceptible type strain) was 4 µg/mL and the Minimum inhibitory concentration (Staphylococcusaureus; ATCC 29213 - antibiotic-susceptible type strain) was 4 µg/mL. For the same molecule, the Minimum inhibitory concentration (Staphylococcusaureus; ATCC 43300 - methicillin-resistant type strain) was over 64 µg/mL, the Minimum inhibitory concentration [5] was 0.12 µg/mL and the Minimum inhibitory concentration [6, 11] was 4 µg/mL. It also gave a Minimum inhibitory concentration ([7]; clinical isolate (first listed, r37)) of 0.5 µg/mL, a Minimum inhibitory concentration [7, 13] of 1 µg/mL and a Minimum inhibitory concentration (Bacteroides fragilis; ATCC 25285) of 64 µg/mL. For the same molecule, the Minimum inhibitory concentration (Bacteroides fragilis; clinical isolate) was 16 µg/mL, the Minimum inhibitory concentration (Bifidobacterium longum; NCTC 11818) was 2 µg/mL and the Minimum inhibitory concentration (Clostridium difficile; ATCC 700057) was over 64 µg/mL. For the same molecule, the Minimum inhibitory concentration (Clostridium difficile; NCTC 13366 - NAP1/027) was over 64 µg/mL, the Minimum inhibitory concentration (Clostridium difficile; [9]) was over 64 µg/mL and the Minimum inhibitory concentration (Clostridium difficile; ribotype 002 - clinical isolate) was over 64 µg/mL. It also gave a Minimum inhibitory concentration (Clostridium difficile; ribotype 011 - clinical isolate) of over 64 µg/mL, a Minimum inhibitory concentration (Clostridium difficile; ribotype 027 - clinical isolate) of over 64 µg/mL and a Minimum inhibitory concentration (Clostridium difficile; ribotype 050 - clinical isolate) of over 64 µg/mL. The Minimum inhibitory concentration (Clostridium difficile; ribotype 176 - clinical isolate) was over 64 µg/mL, the Minimum inhibitory concentration (Propionibacterium acnes) was 8 µg/mL and the Minimum inhibitory concentration (Propionibacterium acnes; clinical isolate MIC clindamycin 0.5 mg/L) was 8 µg/mL. The Minimum inhibitory concentration (Enterococcus faecium) was over 64 µg/mL, the Minimum inhibitory concentration (Veillonella spp.) was 1 µg/mL and the Minimum inhibitory concentration ([8]; NCTC 11814) was 2 µg/mL.
In the case of `CCC[C@@H]1C[C@@H](C(=O)N[C@@H]([C@H]2O[C@H](SC)[C@H](O)[C@@H](O)[C@H]2O)[C@H](C)Cl)N(C)C1` [Clindamycin, clindamycin, reference compound], the MIC (Group C Streptococcus; Streptococcus, read-out: Minimum inhibitory concentration) is reported as at most 0.03 µg/mL, the MIC (Clostridium sporogenes; Clostridium sporogenes, ATCC3584, read-out: Minimum inhibitory concentration) is reported as 32 µg/mL (≈ 75.3 µM) and the MIC (Streptococcus pneumoniae; ATCC49619, read-out: Minimum inhibitory concentration) is reported as at most 0.03 µg/mL. For the same molecule, the MIC (Streptococcus pneumoniae; [14]) was at most 0.03 µg/mL, the Minimum inhibitory concentration (Streptococcus pyogenes; [10]) was “≦0.03 ug/mL” and the MIC (Streptococcus pyogenes; Streptococcus pyogenes, read-out: Minimum inhibitory concentration) was at most 0.03 µg/mL. For the same molecule, the MIC (Veillonella parvula; Veillonella parvula, NCTC11810, read-out: Minimum inhibitory concentration) was at most 0.03 µg/mL, the MIC (Campylobacter coli; ATCC33559, read-out: Minimum inhibitory concentration) was at most 0.03 µg/mL and the MIC (Campylobacter coli; [14]) was 0.06 µg/mL (≈ 0.141 µM). The MIC (Campylobacter jejuni; ATCC33560, read-out: Minimum inhibitory concentration) was at most 0.03 µg/mL, the MIC (Campylobacter jejuni; [14]) was at most 0.03 µg/mL and the MIC (Bifidobacterium dentium; Bifidobacterium dentium, NCTC11816, read-out: Minimum inhibitory concentration) was at most 0.03 µg/mL. The MIC (Helicobacter pylori; ATCC43504, read-out: Minimum inhibitory concentration) was at most 0.03 µg/mL, the MIC (Helicobacter pylori; [14]) was at most 0.03 µg/mL and the Minimum inhibitory concentration (Helicobacter pylori; clinical isolate (r56)) was “≦0.03 ug/mL”. For the same molecule, the Minimum inhibitory concentration (Helicobacter pylori; clinical isolate (r57)) was “≦0.03 ug/mL”, the Minimum inhibitory concentration (Helicobacter pylori; clinical isolate (r101)) was “≦0.03 ug/mL” and the MIC (Veillonella atypical; Veillonella, NCTC11830, read-out: Minimum inhibitory concentration) was 0.06 µg/mL (≈ 0.141 µM). For the same molecule, the MIC ([3]; ATCC29741, read-out: Minimum inhibitory concentration) was 2 µg/mL (≈ 4.71 µM), the MIC ([3]; NCTC10582, read-out: Minimum inhibitory concentration) was 1 µg/mL (≈ 2.35 µM) and the MIC (Clostridium perfringens; ATCC13124, read-out: Minimum inhibitory concentration) was 0.06 µg/mL (≈ 0.141 µM). It also gave an MIC (Clostridium perfringens; [14]) of 0.06 µg/mL (≈ 0.141 µM), an MIC ([4]; Staphylococcus epidermidis, read-out: Minimum inhibitory concentration) of 0.12 µg/mL (≈ 0.282 µM) and a Minimum inhibitory concentration [4, 12] of 0.12 µg/mL (≈ 0.282 µM). It also gave an MIC (Staphylococcusaureus; read-out: Minimum inhibitory concentration, ATCC 25923 - antibiotic-susceptible type strain) of 0.06 µg/mL (≈ 0.141 µM), an MIC (Staphylococcusaureus; read-out: Minimum inhibitory concentration, ATCC 29213 - antibiotic-susceptible type strain) of 0.06 µg/mL (≈ 0.141 µM) and an MIC (Staphylococcusaureus; read-out: Minimum inhibitory concentration, ATCC 43300 - methicillin-resistant type strain) of over 64 µg/mL. The MIC ([6]; Staphylococcus haemolyticus, read-out: Minimum inhibitory concentration) was 0.06 µg/mL (≈ 0.141 µM), the MIC ([7]; Prevotella, read-out: Minimum inhibitory concentration) was at most 0.03 µg/mL and the Minimum inhibitory concentration [7, 13] was “≦0.03 ug/mL”. For the same molecule, the MIC (Bacteroides fragilis; ATCC25285, read-out: Minimum inhibitory concentration) was 0.5 µg/mL (≈ 1.18 µM), the MIC (Bacteroides fragilis; [14]) was 0.12 µg/mL (≈ 0.282 µM) and the MIC (Bifidobacterium longum; Bifidobacterium longum, NCTC11818, read-out: Minimum inhibitory concentration) was 0.12 µg/mL (≈ 0.282 µM). For the same molecule, the MIC (Propionibacterium acnes; read-out: Minimum inhibitory concentration, clinical isolate MIC clindamycin 0.5 mg/L) was 0.12 µg/mL (≈ 0.282 µM), the MIC (Propionibacterium acnes; read-out: Minimum inhibitory concentration, clinical isolate MIC clindamycin […]) was 0.06 µg/mL (≈ 0.141 µM) and the MIC ([8]; Bifidobacterium adolescentis, NCTC11814, read-out: Minimum inhibitory concentration) was at most 0.03 µg/mL.

— patent publication US20120202756A1, “USE OF PRODRUGS TO AVOID GI MEDIATED ADVERSE EVENTS” (priority 2009, published 2012)
